# PMC11989212, “Experimental Conditions to Retrieve Intrinsic Cooperativity α Directly from Single Binding Assay Data Exemplified by the Ternary Complex Formation of FKBP12, MAPRE1 and Macrocyclic Molecular Glues” (International Journal of Molecular Sciences, 2025)
# Where two headings read alike, the source gives them in different places.
# Experiments:
# [1] = Precipitation seen in the spectral shift titration; type: physicochemical; details: assay buffer, high concentrations
# Method: Therefore, measurements from the highest concentration samples had to be removed, which impaired the determination of the interpolation curve. Moreover, the signal is much smaller compared to the other studied ligands. […] This is a deviation from the theoretically found true value of 1985 nM − 2.5 nM = 1982.5 nM. The KT,2 is 2% below the EC50 value of the %Tbound, ternary curve. The apparent cooperativity of 460,000 nM/1985 nM = 232 is still below the cooperativity α of 460,000 nM/1941 = 237 (Figure 10b).
# A 1:2 dilution series of all compounds (starting from the 10 mM stock concentration) was prepared in pure DMSO. Each concentration was diluted 25-fold with assay buffer (20 mM HEPES, pH 7.4, 150 mM NaCl, 1 mM DTT (all from Carl Roth, Karlsruhe, Germany), and 0.01% Pluronic F-127 (Sigma Aldrich, Taufkirchen, Germany)). Next, 10 µL from each of the prepared ligand dilutions was transferred into an empty well on a Dianthus Microwell Plate (DI-P001A). […] For all interactions measured via FKBP12, the target was prepared at a final concentration of 40 nM, supplemented with 5 nM NTA fluorophore. […] The resulting spectral shift signal (Ratio 670 nm/650 nm) was plotted against compound concentration and analyzed in the DI.Screening Analysis software, version 2.1.1.
# [2] = molecular target: FKBP12 in the presence of MAPRE1 (Homo sapiens, UniProt P62942+Q15691); assay: Spectral shift target engagement assay, binding to FKBP12 in the presence of 10 μM MAPRE1 (ternary)
# Description: Our method of choice is the spectral shift method, which monitors binding events on the target isothermally and in equilibrium via an environment-sensitive near-infrared fluorophore. In the case of target engagement, either the proximity of the ligand towards the dye or structural changes occurring in the target as a result of binding lead to a change in the chemical environment of the fluorophore. Those changes affect the physiochemical properties of the reporter fluorophore and translate into either blue or red shifts (or peak broadening) of emission peaks upon ligand binding, which can be sensitively monitored by simultaneously recording the fluorescence at two wavelengths (i.e., at 650 nm and 670 nm). Calculating the ratio between the two fluorescence channels then allows to monitor subtle emission shifts that occur as a result of target engagement. Affinity measurements can then be performed by recording the spectral shift as a function of ligand concentration.
# Binding studies through FKBP12: To monitor the binding of R,--SLF-11 by the stronger binding FKBP12 in the absence and in the presence of 10 μM MAPRE1 via %Cbound, binary and %Cbound, ternary, respectively, the concentration of reversibly NTA-labeled FKBP12 was limited to [Ctot] = 40 nM. […] In contrast to the experimental setup in the previous two binding experiments with monitoring through the weaker binding protein MAPRE1, where the applied protein concentrations were optimally chosen, this is not the case for the binding experiment through the stronger binder FKBP12. First of all, the applied excess of T with [Ttot] = 10 μM is roughly 20000-fold off of the proposed 100 times KT,1 threshold, which would correspond to 180 mM. Only under such excess conditions of T can the equilibrium of forming TL under the constraint that all ligand L is bound to T be reached to ensure that [Ltot] approaches the “ligand” concentration [TL]. […] If KC,2 is sufficiently high, the 20 nM deviation to correct for the protein concentration could be neglected. However, the resulting calculated value for KC,2 is 0.023 nM, accounting for the cooperativity α = 10,405 and KC,1 = 234 nM as derived by the MAPRE1 experiment. This value is far below the applied protein concentration of [Ctot] = 40 nM and makes it infeasible to estimate KC,2 from the EC50 of the %Cbound, ternary curve. Consequently, the EC50 shifts, meaning the apparent cooperativity, from monitoring the binding by the stronger binding protein C are diverging from the underlying intrinsic cooperativity α. […] The deviation of calculated (254 nM/24.2 nM = 10.5) and measured apparent cooperativity (254 nM/66 nM = 3.8) can be explained by a negative cooperativity induced by the His6-NTA tag of FKBP12. Studies to lower [Ctot] and identify a better position for the spectral shift tag on FKBP12 are ongoing (Figure 6a).
# His-tagged FKBP12 was labeled using the His-Tag Labeling Kit RED-tris-NTA 2nd Generation (MO-L018; NanoTemper Technologies GmbH). The affinity between NTA dye and the His-tag of FKBP12 was determined as 7 nM. MAPRE1 was labeled using the Protein Labeling Kit RED-NHS 2nd Generation (MO-L011; NanoTemper Technologies GmbH). In brief, 10 µM of MAPRE1 was incubated with a 3-fold molar excess of fluorophore for 30 min. The unreacted fluorophore was removed by performing a size exclusion purification (B-column). Collecting the protein fraction yielded 1.8 µM labeled MAPRE1, with a degree of labeling of 0.8, as determined on a Nanodrop.
# A 1:2 dilution series of all compounds (starting from the 10 mM stock concentration) was prepared in pure DMSO. Each concentration was diluted 25-fold with assay buffer (20 mM HEPES, pH 7.4, 150 mM NaCl, 1 mM DTT (all from Carl Roth, Karlsruhe, Germany), and 0.01% Pluronic F-127 (Sigma Aldrich, Taufkirchen, Germany)). Next, 10 µL from each of the prepared ligand dilutions was transferred into an empty well on a Dianthus Microwell Plate (DI-P001A). […]
# Chain of FKBP12 in the presence of MAPRE1 (P62942 whole entry): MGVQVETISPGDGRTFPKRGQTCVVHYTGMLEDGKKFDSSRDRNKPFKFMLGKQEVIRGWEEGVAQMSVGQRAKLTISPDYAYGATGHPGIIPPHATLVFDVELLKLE
# Chain of FKBP12 in the presence of MAPRE1 (Q15691 whole entry): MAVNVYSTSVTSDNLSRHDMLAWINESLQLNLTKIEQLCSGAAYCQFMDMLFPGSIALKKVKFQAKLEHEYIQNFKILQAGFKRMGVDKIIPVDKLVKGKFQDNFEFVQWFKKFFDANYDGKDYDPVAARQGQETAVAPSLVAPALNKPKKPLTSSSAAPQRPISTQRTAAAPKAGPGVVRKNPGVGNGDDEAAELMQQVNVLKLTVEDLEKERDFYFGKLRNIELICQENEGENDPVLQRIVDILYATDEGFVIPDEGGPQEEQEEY
smiles,measurement,setting,value
"C=C1CCN2C(=O)COc3cccc(c3)C(CCc3ccc(OC)c(OC)c3)OC(=O)C3CCCCN3C(=O)C(=O)C(C)(C)COC(=O)C(CN)NC(=O)C2C1 (stereo not drawn) [R,S-SLF-7]",precipitation,[1],precipitation at high concentrations
same,EC50,"[2]; 40 nM FKBP12-NTA, 10 μM MAPRE1, read-out: EC50 of the %Cbound, ternary curve (measured)",110 nM
same,EC50,"[2]; calculated with the model using α from MAPRE1 binding, read-out: calc EC50 of the %Cbound, ternary curve",48 nM
